What was measured:
Assay type in all cases: cell-based, Homo sapiens
claudin-5 = assay: Western blot of claudin-5 expression in hCMEC/D3 cells; details: hCMEC/D3 cells; for GDNF-induced claudin-5 expression: 200 pg/ml GDNF, 3 μM SPP-86, 5 μM PP2, 3 μM LY294002, 2 μM U0126, 5 μM SP600125, 2 μM SB203580; for GDNF-induced claudin-5 expression / US-CM-induced claudin-5 expression: anti-GDNF antibody 0.25, 0.5, 1.0 μg/ml; for US-CM-induced claudin-5 expression: 3 μM SPP-86, 5 μM PP2, 3 μM LY294002, 2 μM U0126
Description: (§1) Whole-cell and tissue lysates, nucleoprotein, and cytoplasmic protein were prepared using RIPA Lysis Buffer (Beyotime, Shanghai, China) as the described method ([Wu et al., 2021]). Proteins were separated through sodium dodecyl sulfate–polyacrylamide gel electrophoresis and transferred onto nitrocellulose or polyvinylidene difluoride membranes. The membranes were blocked with 5% skim milk and incubated with corresponding primary antibodies at 4°C overnight. After being washed with Tris-buffered saline Tween buffer, the membranes were incubated with secondary antibodies (Cell Signaling Technology, MA, USA) at 1:3000 dilution: Anti-mouse IgG, HRP-linked Antibody (#7076), Anti-rabbit IgG, HRP-linked Antibody (#7074). Protein levels were visualized using a highly sensitive ECL western blotting substrate and a gel imaging system (Tanon Science & Technology, Shanghai, China).
(§2) CM of U251 cells (U-CM), SH-SY5Y cells (S-CM), or co-culture of U251 and SH-SY5Y cells (US-CM) was prepared. U251 cells were seeded at the top of the insert membrane and suspended on 6-well plates seeded with differentiated SH-SY5Y cells to co-culture U251 cells with SH-SY5Y cells. The medium was collected every 24 hr. The CMs were subsequently used for hCMEC/D3 cell culture after filtrating with 0.2 μm filters for 144 hr. The levels of GDNF, bFGF, IGF-1, and TGF-β in CMs were measured using corresponding ELISA kits according to the manufacturers’ instructions.
(§3) Exogenous and endogenous GDNF in the medium was neutralized with anti-GDNF antibody (#AF-212-NA, R&D system, Minneapolis, MN, USA). 0.25, 0.5, and 1.0 μg/ml anti-GDNF antibody was added into the US-CM or medium containing 200 pg/ml GDNF, and then the medium was preincubated at 4°C for 1 hr. The hCMEC/D3 cells were incubated with 200 pg/ml GDNF or US-CM containing anti-GDNF antibody or not for 6 days, and then cell lysate was collected for western blot. The medium was replaced every 24 hr.
(§4) Here, hCMEC/D3 cells were plated in the plates or culture dishes at 6 × 10^4 cells/cm^2 and transfected with 10 nM of negative control or human FOXO1, ETS1, and CDH5 siRNA (Tsingke Biotechnology, Beijing, China) for 12 hr using Lipofectamine 3000 (Invitrogen, Carlsbad, CA, USA) reagent according to the manufacturer’s instructions. Cells were then incubated with a medium containing GDNF for 72 hr.
(§5) The plasmids encoding FOXO1 (EX-Z7404-M02) were constructed by GeneCopoeia (Rockville, MD, USA). The hCMEC/D3 cells were plated in plates or dishes at 6 × 10^4 cells/cm^2. They were subsequently transfected with 1 µg of negative control or plasmids encoding FOXO1 6 hr using Lipofectamine 3000 reagent according to the manufacturer’s instructions. Transfected cells were then incubated with the medium containing GDNF for 72 hr.

VE-cadherin = assay: Western blot of VE-cadherin expression in hCMEC/D3 cells; details: hCMEC/D3 cells, anti-GDNF antibody 0.25, 0.5, 1.0 μg/ml; for GDNF-induced VE-cadherin expression: 200 pg/ml GDNF, 3 μM SPP-86, 5 μM PP2, 3 μM LY294002, 2 μM U0126, 5 μM SP600125, 2 μM SB203580; for US-CM-induced VE-cadherin expression: 3 μM SPP-86, 5 μM PP2, 3 μM LY294002, 2 μM U0126
Description: as §1, §2, §3, §4

p-AKT/AKT = assay: Western blot of p-AKT/AKT in hCMEC/D3 cells; details: hCMEC/D3 cells, US-CM; 3 μM LY294002 or anti-GDNF antibody
Description: as §1, §3

FOXO1 = assay: Western blot of FOXO1 (p-FOXO1/FOXO1, total, cytoplasmic, nuclear) in hCMEC/D3 cells; details: hCMEC/D3 cells; LY294002 or U0126
Description: as §1, §4, §5

ETS1 = assay: Western blot of total and nuclear ETS1 in hCMEC/D3 cells; details: hCMEC/D3 cells, 200 pg/ml GDNF; LY294002 or U0126
Description: as §1, §4

p-ERK/ERK = assay: Western blot of p-ERK/ERK in hCMEC/D3 cells; details: hCMEC/D3 cells, US-CM; 2 μM U0126 or anti-GDNF antibody
Description: as §1, §3

O=c1cc(N2CCOCC2)oc2c(-c3ccccc3)cccc12 [LY294002, reference compound]
GDNF-induced claudin-5 expression (claudin-5): significantly suppressed | US-CM-induced claudin-5 expression (claudin-5): markedly reversed | upregulation of claudin-5 expression induced by FOXO1 siRNA and GDNF (claudin-5; LY294002): reversed | GDNF-induced VE-cadherin expression (VE-cadherin): significantly suppressed | US-CM-induced VE-cadherin expression (VE-cadherin): markedly reversed | US-CM-induced p-AKT (p-AKT/AKT): markedly reversed | GDNF-induced alterations in total p-FOXO1, cytoplasmic p-FOXO1, cytoplasmic FOXO1, and nuclear FOXO1 (FOXO1): significantly reversed | GDNF-induced nuclear ETS1 expression (ETS1): markedly attenuated | GDNF-induced total ETS1 expression (ETS1): markedly attenuated

N#CC(=C(/N)Sc1ccccc1N)/C(C#N)=C(/N)Sc1ccccc1N [U0126, reference compound]
GDNF-induced claudin-5 expression (claudin-5): significantly suppressed | US-CM-induced claudin-5 expression (claudin-5): markedly reversed | GDNF-induced VE-cadherin expression (VE-cadherin): significantly suppressed | US-CM-induced VE-cadherin expression (VE-cadherin): markedly reversed | US-CM-induced p-ERK (p-ERK/ERK): markedly reversed | GDNF-induced nuclear ETS1 expression (ETS1): markedly attenuated | GDNF-induced total ETS1 expression (ETS1): markedly attenuated
